Source: patent US20060173048A1, “Imidazole derivatives” (priority 2005, published 2006)

Columns and labels:
[1] = target: T1, rat mGlu2 receptor (Rattus norvegicus, UniProt P31421); assay: [3H]-LY354740 binding on mGlu2 transfected CHO cell membranes; conditions: displacement of 10 nM [3H]-LY354740, membranes of CHO cells transfected with rat mGlu2, room temperature, 1 hour
T1 construct: expressed in transfected cells; host or cells: CHO cells, stably transfected (G-418 selection); membranes were prepared from them
Excerpt: [^3H]-LY354740 Binding on mGlu2 Transfected CHO Cell Membranes. Transfection and Cell Culture
cDNA encoding the rat mGlu2 receptor protein in pBluescript II was subcloned into the eukaryotic expression vector pcDNA I-amp from Invitrogen Ltd (Paisley, UK). This vector construct (pcD1mGR^2) was co-transfected with a psvNeo plasmid encoding the gene for neomycin resistance, into CHO cells by a modified calcium phosphate method described by Chen & Okayama (1988). The cells were maintained in Dulbecco's Modified Eagle medium with reduced L-glutamine (2 mM final concentration) and 10% dialysed foetal calf serum from Gibco-Invitrogen (Carlsbad, Calif., USA). Selection was made in the presence of G-418 (1000 ug/ml final) and […]. Clones were identified by reverse transcription of 5 μg total RNA, followed by PCR using mGlu2 receptor specific primers 5′-[…]-3′ and 540 -[…]-3′ in 60 mM Tris HCl (pH 10), 15 mM (NH4)2SO4, 2 mM MgCl2, 25 units/ml Taq Polymerase with 30 cycles annealing at 60° C. for 1 min., extention at 72° C. for 30 s, and 1 min. 95° C. denaturation.
Cells, cultured as above, were harvested and washed three times with cold PBS and frozen at −80° C. The pellet was resuspended in cold 20 mM HEPES-NaOH buffer containing 10 mM EDTA (pH 7.4), and homogenised with a polytron (Kinematica, AG, Littau, Switzerland) for 10 s at 10 000 rpm. After centrifugation for 30 min. at 4° C., the pellet was washed once with the same buffer, and once with cold 20 mM HEPES-NaOH buffer containing 0.1 mM EDTA, (pH 7.4). Protein content was measured using the micro BCA method from Pierce-Perbio (Rockford, Ill., USA) using bovine serum albumin as standard.
After thawing, the membranes were resuspended in cold 50 mM Tris-HCl buffer containing 2 mM MgCl2 (pH 7) (binding buffer). The final concentration of the membranes in the assays was 25 μg protein/ml. Inhibition experiments were performed with membranes incubated with 10 nM [^3H]-LY354740 at room temperature, for 1 hour, in presence of various concentrations of the compound to be tested. Following the incubations, membranes were filtered onto Whatmann GF/B glass fiber filters and washed 5 times with cold binding buffer. Non specific binding was measured in the presence of 10 μM DCG IV. After transfer of the filters into plastic vials containing 10 ml of Ultima-gold scintillation fluid from Perkin-Elmer (Boston, Mass., USA), the radioactivity was measured by liquid scintillation in a Tri-Carb 2500 TR counter (Packard, Zürich, Switzerland).
The inhibition curves were fitted with a four parameter logistic equation giving IC50 values, and Hill coefficients.

T1 sequence (P31421 19-872): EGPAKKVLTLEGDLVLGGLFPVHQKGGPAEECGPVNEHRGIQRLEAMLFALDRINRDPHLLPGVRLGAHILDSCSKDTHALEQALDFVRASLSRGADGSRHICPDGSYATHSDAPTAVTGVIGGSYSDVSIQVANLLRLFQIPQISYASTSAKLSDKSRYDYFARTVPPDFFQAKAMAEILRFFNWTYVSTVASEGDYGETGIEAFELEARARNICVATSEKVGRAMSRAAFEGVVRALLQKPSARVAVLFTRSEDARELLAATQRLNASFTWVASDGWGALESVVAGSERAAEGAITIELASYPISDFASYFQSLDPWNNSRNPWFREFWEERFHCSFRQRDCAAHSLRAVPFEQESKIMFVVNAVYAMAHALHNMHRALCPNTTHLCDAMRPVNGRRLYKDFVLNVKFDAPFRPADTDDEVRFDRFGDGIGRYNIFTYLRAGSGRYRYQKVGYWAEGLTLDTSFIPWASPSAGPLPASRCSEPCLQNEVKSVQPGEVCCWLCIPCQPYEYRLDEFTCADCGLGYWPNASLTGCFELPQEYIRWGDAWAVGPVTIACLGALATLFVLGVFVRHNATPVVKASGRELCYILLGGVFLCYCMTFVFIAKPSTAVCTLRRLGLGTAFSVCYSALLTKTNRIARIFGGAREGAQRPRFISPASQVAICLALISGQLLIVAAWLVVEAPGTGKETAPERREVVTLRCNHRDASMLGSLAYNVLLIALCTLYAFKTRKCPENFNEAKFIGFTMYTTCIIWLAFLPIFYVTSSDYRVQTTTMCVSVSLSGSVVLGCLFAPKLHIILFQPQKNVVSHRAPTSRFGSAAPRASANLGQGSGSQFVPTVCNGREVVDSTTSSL

Row | SMILES | Ki [1] [nM] | melting point [°C]
1 | C=CCn1c(-c2c(Cl)cccc2Cl)nc(-c2ccncc2)c1-c1ccc(C)cc1 [Example 19, 4-[1-Allyl-2-(2,6-dichloro-phenyl)-5-(4-methyl-phenyl)-1H-imidazol-4-yl]-pyridine] | 34 | 147 to 149
2 | Cc1cc(C)c(-c2nc(-c3ccncc3)c(-c3ccc(Cl)cc3)n2CCO)c(C)c1 [Example 26, 2-[5-(4-Chloro-phenyl)-4-pyridin-4-yl-2-(2,4,6-trimethyl-phenyl)-imidazol-1-yl]-ethanol] | 63 | 
3 | Clc1ccc(-c2c(-c3ccncc3)nc(-c3c(Cl)cccc3Cl)n2C2CC2)cc1 [Example 27, 4-[5-(4-Chloro-phenyl)-1-cyclopropyl-2-(2,6-dichloro-phenyl)-1H-imidazol-4-yl]-pyridine] | 21 | 210 to 211
4 | CCCC(CCC)c1nc(-c2ccncc2)c(-c2ccc(Cl)cc2)n1CC [Example 37, 4-[5-(4-Chloro-phenyl)-1-ethyl-2-(1-propyl-butyl)-1H-imidazol-4-yl]-pyridine] | 49 | 152 to 155
5 | CCn1c(C(O)(C2CCCCC2)C2CCCCC2)nc(-c2ccncc2)c1-c1ccc(Cl)cc1 [Example 47, [5-(4-Chloro-phenyl)-1-ethyl-4-pyridin-4-yl-1H-imidazol-2-yl]-dicyclohexyl-methanol] | 18 | 221 to 224
6 | CCn1c(-c2c(Cl)cccc2Cl)nc(-c2ccnc(Cl)c2)c1-c1ccc(Cl)cc1 [Example 54, 2-Chloro-4-[5-(4-chloro-phenyl)-2-(2,6-dichloro-phenyl)-1-ethyl-1H-imidazol-4-yl]-pyridine] |  | 187 to 189

Other lines, results leading:

Row | Ki [1] [nM] | melting point [°C] | SMILES
7 | 7 | 257 to 260 | Cn1c(-c2c(Cl)cccc2Cl)nc(-c2ccncc2)c1-c1ccc(Cl)cc1 [Example 3, 4-[5-(4-Chloro-phenyl)-2-(2,6-dichloro-phenyl)-1-methyl-1H-imidazol-4-yl]-pyridine]
8 | 13 | 191 to 193 | CCn1c(-c2c(Cl)cccc2Cl)nc(-c2ccncc2)c1-c1ccc(C)cc1 [Example 11, 4-[2-(2,6-Dichloro-phenyl)-1-ethyl-5-(4-methyl-phenyl)-1H-imidazol-4-yl]-pyridine]
9 | 111 | 185 to 188 | CCn1c(C(O)(C2CC2)C2CC2)nc(-c2ccncc2)c1-c1ccc(Cl)cc1 [Example 43, [5-(4-Chloro-phenyl)-1-ethyl-4-pyridin-4-yl-1H-imidazol-2-yl]-dicyclopropyl-methanol]
10 |  | 138 to 140 | CCn1c(-c2c(Cl)cccc2Cl)nc(-c2ccnc(OC)c2)c1-c1ccc(Cl)cc1 [Example 55, 4-[5-(4-Chloro-phenyl)-2-(2,6-dichloro-phenyl)-1-ethyl-1H-imidazol-4-yl]-2-methoxy-pyridine]
